Assay: xn = mol fraction of the nth substance listed
Details: 101 kPa, Liquid

CCCCn1cc[n+](C)c1.N#CN=C=[N-] [1-butyl-3-methylimidazolium dicyanamide] + O
Details	mass density [kg/m3]	viscosity [mPa·s]
278.15 K, x2 = 0	1075.8	82.07
278.15 K, x2 = 0.059	1075.3	74.2
278.15 K, x2 = 0.1963	1074.3	58.7
278.15 K, x2 = 0.2736	1072.8	48.94
278.15 K, x2 = 0.35	1071.1	37.6
278.15 K, x2 = 0.3974	1069.4	31.98
278.15 K, x2 = 0.4831	1066.2	23.22
288.15 K, x2 = 0	1069.4	48.93
288.15 K, x2 = 0.059	1068.9	44.99
288.15 K, x2 = 0.1963	1067.8	36.45
288.15 K, x2 = 0.2736	1066.4	30.87
288.15 K, x2 = 0.35	1064.6	24.28
288.15 K, x2 = 0.3974	1062.9	20.88
288.15 K, x2 = 0.4831	1059.6	15.38
298.15 K, x2 = 0	1063.1	31.8
298.15 K, x2 = 0.059	1062.5	29.55
298.15 K, x2 = 0.1963	1061.4	24.4
298.15 K, x2 = 0.2736	1059.9	20.94
298.15 K, x2 = 0.35	1059.1	16.75
298.15 K, x2 = 0.3974	1056.3	14.52
298.15 K, x2 = 0.4831	1052.9	10.8
308.15 K, x2 = 0	1056.8	21.79
308.15 K, x2 = 0.059	1056.2	20.6
308.15 K, x2 = 0.1963	1055	17.29
308.15 K, x2 = 0.2736	1053.6	15
308.15 K, x2 = 0.35	1051.6	12.16
308.15 K, x2 = 0.3974	1049.8	10.61
308.15 K, x2 = 0.4831	1046.2	7.951
318.15 K, x2 = 0	1050.6	15.88
318.15 K, x2 = 0.059	1050.1	15.09
318.15 K, x2 = 0.1963	1048.7	12.82
318.15 K, x2 = 0.2736	1047.3	11.22
318.15 K, x2 = 0.35	1045.2	9.198
318.15 K, x2 = 0.3974	1043.3	8.072
318.15 K, x2 = 0.4831	1039.6	6.072
328.15 K, x2 = 0	1044.4	12.06
328.15 K, x2 = 0.059	1043.9	11.49
328.15 K, x2 = 0.1963	1042.4	9.885
328.15 K, x2 = 0.2736	1041	8.702
328.15 K, x2 = 0.35	1038.8	7.202
328.15 K, x2 = 0.3974	1036.9	6.346
328.15 K, x2 = 0.4831	1033	4.792
338.15 K, x2 = 0	1038.2	9.475
338.15 K, x2 = 0.059	1037.7	9.047
338.15 K, x2 = 0.1963	1036.2	7.852
338.15 K, x2 = 0.2736	1034.7	6.95
338.15 K, x2 = 0.35	1032.4	5.798
338.15 K, x2 = 0.3974	1030.5	5.126
338.15 K, x2 = 0.4831	1026.4	3.884
348.15 K, x2 = 0	1032.1	7.643
348.15 K, x2 = 0.059	1031.5	7.314
348.15 K, x2 = 0.1963	1030	6.397
348.15 K, x2 = 0.2736	1028.5	5.688
348.15 K, x2 = 0.35	1026.1	4.777
348.15 K, x2 = 0.3974	1024.1	4.237
348.15 K, x2 = 0.4831	1019.8	3.223
358.15 K, x2 = 0	1025.8	6.304
358.15 K, x2 = 0.059	1025.3	6.048
358.15 K, x2 = 0.1963	1023.8	5.322
358.15 K, x2 = 0.2736	1022.3	4.748
358.15 K, x2 = 0.35	1019.8	4.007
358.15 K, x2 = 0.3974	1017.7	3.577
358.15 K, x2 = 0.4831	1013.2	2.711

From the NIST ThermoML archive (doi:10.1021/je900632q)
